According to the NIST ThermoML archive (doi:10.1021/acs.jced.7b00646):

Assay: xn = mol fraction of the nth substance listed
Conditions: 318.15 K, 101.3 kPa, Liquid, Alternating current cell with electrodes

CCCC[n+]1ccn(C)c1.O=S(=O)([N-]S(=O)(=O)C(F)(F)F)C(F)(F)F + CC1COC(=O)O1
Conditions | electrical conductivity [S/m]
x1 = 1 | 0.877

CCCC[n+]1ccn(C)c1.O=S(=O)([N-]S(=O)(=O)C(F)(F)F)C(F)(F)F + COC(=O)OC
Conditions | electrical conductivity [S/m]
x1 = 0.05 | 0.587
x1 = 0.1 | 1.36
x1 = 0.2001 | 2.12
x1 = 0.2999 | 2.14
x1 = 0.4 | 1.93
x1 = 0.5002 | 1.68
x1 = 0.5998 | 1.42
x1 = 0.7 | 1.23
x1 = 0.8 | 1.08
x1 = 0.8999 | 0.965
x1 = 1 | 0.877

CCCC[n+]1ccn(C)c1.O=S(=O)([N-]S(=O)(=O)C(F)(F)F)C(F)(F)F + O=C1CCCO1
Conditions | electrical conductivity [S/m]
x1 = 1 | 0.877

CCCC[n+]1ccn(C)c1.O=S(=O)([N-]S(=O)(=O)C(F)(F)F)C(F)(F)F + O=C1OCCO1
Conditions | electrical conductivity [S/m]
x1 = 1 | 0.877

CC1COC(=O)O1 (centres undefined) [4-methyl-1,3-dioxolan-2-one] + CCCC[n+]1ccn(C)c1.O=S(=O)([N-]S(=O)(=O)C(F)(F)F)C(F)(F)F
Conditions | electrical conductivity [S/m]
x2 = 0.05 | 1.08
x2 = 0.1 | 1.51
x2 = 0.2001 | 1.75
x2 = 0.2999 | 1.68
x2 = 0.4 | 1.53
x2 = 0.5002 | 1.36
x2 = 0.5998 | 1.224
x2 = 0.7 | 1.114
x2 = 0.8 | 1.009
x2 = 0.8999 | 0.924

O=C1OCCO1 [ethylene carbonate] + CCCC[n+]1ccn(C)c1.O=S(=O)([N-]S(=O)(=O)C(F)(F)F)C(F)(F)F
Conditions | electrical conductivity [S/m]
x2 = 0.05 | 1.36
x2 = 0.1 | 1.87
x2 = 0.2001 | 2.06
x2 = 0.2999 | 1.908
x2 = 0.4 | 1.7
x2 = 0.5002 | 1.504
x2 = 0.5998 | 1.313
x2 = 0.7 | 1.17
x2 = 0.8 | 1.07
x2 = 0.8999 | 0.965

O=C1CCCO1 [γ-butyrolactone] + CCCC[n+]1ccn(C)c1.O=S(=O)([N-]S(=O)(=O)C(F)(F)F)C(F)(F)F
Conditions | electrical conductivity [S/m]
x2 = 0.05 | 1.43
x2 = 0.1 | 1.95
x2 = 0.2001 | 2.13
x2 = 0.2999 | 1.96
x2 = 0.4 | 1.72
x2 = 0.5002 | 1.506
x2 = 0.5998 | 1.307
x2 = 0.7 | 1.16
x2 = 0.8 | 1.03
x2 = 0.8999 | 0.937
